Laboratory results: paper PMC6659632, “Preferential phosphatidylinositol 5-phosphate binding contributes to a destabilization of the VHS domain structure of Tom1” (Scientific Reports, 2019)
Where two headings read alike, the source gives them in different places.

What was measured:
Assay type in all cases: binding
Tom1 VHS domain [1] = molecular target: T1, Tom1 VHS domain (Homo sapiens, UniProt O60784); experiment: isothermal titration calorimetry
T1 construct: GST fusion from E. coli Rosetta, GST cut off with thrombin; monomer
Text: isothermal titration calorimetry on Tom1 VHS domain

Tom1 VHS domain [2] = molecular target: T1, Tom1 VHS domain; experiment: thermal denaturation by far-UV CD at […] nm; settings: molar excess of lipid, nonreducing, 5 mM sodium citrate pH 7.3, 50 mM KF; free protein Tm 47.5 ± 0.1 °C
Tom1 VHS domain [3] = molecular target: T1, Tom1 VHS domain; experiment: thermal denaturation by far-UV CD at […] nm; settings: pre-incubated with excess lipid, nonreducing, 5 mM sodium citrate pH 7.3, 50 mM KF; free protein Tm 47.5 ± 0.1 °C

T1 sequence (O60784 1-140 limits assumed): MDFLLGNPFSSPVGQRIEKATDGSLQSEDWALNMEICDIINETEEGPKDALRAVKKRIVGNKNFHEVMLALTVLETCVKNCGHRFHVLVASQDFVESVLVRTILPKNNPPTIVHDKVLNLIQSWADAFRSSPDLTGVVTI

## O=P(O)(O)O[C@@H]1[C@@H](O)[C@H](OP(=O)(O)O)[C@H](O)[C@H](O)[C@H]1O [Ins(1,5)P2]
Tom1 VHS domain [1]
  Kd: 214 ± 67.2 µM

## CCCCCCCC(=O)OC[C@H](COP(=O)([O-])OCC[N+](C)(C)C)OC(=O)CCCCCCC [PtdCho]
Tom1 VHS domain [2]
  Tm (°C) / N to I/D: 43.0 ± 0.1 °C

## CCCCCCCC(=O)OC[C@H](COP(=O)(O)O[C@H]1[C@H](O)[C@@H](OP(=O)(O)O)[C@H](O)[C@@H](O)[C@H]1O)OC(=O)CCCCCCC [PtdIns5P]
Tom1 VHS domain [2]
  Tm (°C) / N to I/D: 37.6 ± 0.3 °C
Tom1 VHS domain [1]; high-affinity site of two-site fit, nonreducing, 20 mM HEPES pH 7.4, 150 mM KCl, 25 °C
  Kd: 3.1 ± 0.6 µM

## PtdIns
Tom1 VHS domain [3]
  mid-transition temperature: 34 °C
